Results from US20250074867A1, “NOVEL CATIONIC LIPID COMPOUNDS” (Guangzhou Anobri Pharmaceutical Co. Ltd., priority 2021, published 2025).

Tests used:
[1] = tested on: luciferase expression in the liver; assay: In vivo luciferase mRNA expression in liver after tail vein injection of FLuc mRNA lipid nanoparticles; set-up: species or system mice; conditions: liver 5 hours after administration, FLuc mRNA LNP 50% cationic lipid/10% DSPC/40% cholesterol/1.5% PEG-DMG; for Liver Luc @ 0.3 mg/kg dose: 0.3 mg mRNA/kg; for Liver Luc @ 1.0 mg/kg dose: 1.0 mg mRNA/kg
Procedure: […] Lipid nanoparticles (LNPs) were prepared in a total lipid to mRNA weight ratio of about 10:1 to 30:1. mRNA was diluted to 0.15 mg/ml in 10 to 50 ml citrate buffer (pH=4). Using a syringe pump, an ethanolic solution of lipids was mixed with an aqueous mRNA solution in a ratio of approximately 1:5 to 1:3 (volume/volume) at a total flow rate of more than 15 ml/min. Then ethanol was removed and the external buffer replaced by dialysis with PBS. Finally, the lipid nanoparticles were filtered through a 0.2 um pore size sterile filter. The particle size of lipid nanoparticles as determined by quasi-elastic light scattering using Malvern Zetasizer Nano ZS was approximately 65-105 nm in diameter and, in some cases, approximately 75-100 nm in diameter.
The in vivo study was conducted on female mice aged 6-8 weeks and mice aged 8-10 weeks according to guidelines developed by the National Council for Science and Technology. Different doses of mRNA lipid nanoparticles were administered systemically via tail vein injection and the animals euthanized at specific time points (e.g., 5 hours) after dosing. The liver and spleen were collected in pre-weighed tubes, their weights determined, frozen immediately in liquid nitrogen, and stored at −80° C. until use for analysis.
For the liver, approximately 50 mg of liver tissue was cut for analysis and placed in 2 mL FastPrep tubes (MP Biomedicals, Solon OH). ¼″ ceramic beads (MP Biomedicals) and 500 μL of Glo Lysis Buffer-GLB (Promega, Madison WI) were added to each tube and the contents equilibrated to room temperature. The liver tissue was then homogenized for 15 seconds at 2×6.0 m/s using a FastPrep24 instrument (MP Biomedicals). The homogenates were incubated for 5 minutes at room temperature followed by a ¼ dilutions in GLB and evaluated using the SteadyGlo luciferase assay system (Promega). Specifically, 50 μL of diluted tissue homogenate was reacted with 50 μL of SteadyGlo substrate, shaken for 10 seconds, followed by incubation for 5 minutes and quantified using a CentroXS3LB 960 photometer (Berthold Technologies, Germany). The amount of protein was determined using a BCA Protein Assay Kit (Pierce, Rockford IL). Relative luminescence units (RLU) were then normalized to the total ug of the measured protein. To convert RLU into ng luciferase, a standard curve was generated with QuantiLum recombinant luciferase (Promega).
FLuc mRNA (L-6107) from Trilink Biotechnologies will express luciferase protein, and was originally isolated from fireflies (Photinus pyralis). Fluc is commonly used in mammalian cell cultures to measure gene expression and cell viability. It emits biologic light in the presence of the substrate luciferin. This capped and polyadenylated mRNA was completely replaced by 5-methylcytidine and pseudouridine. […]

[2] = Determination of the pKa of cationic lipids in lipid nanoparticles by TNS fluorescence analysis
Procedure: The pKa of each cationic lipid was determined in lipid nanoparticles using fluorescence analysis based on 2-(p-toluidine)-6-naphthalenesulfonic acid (TNS). As described in Example 3, lipid nanoparticles containing cationic lipids/DSPC/cholesterol/PEG lipids (50/10/40/1.5 mol %) at a concentration of 0.4 mM total lipid in PBS were prepared using an ordered method. 100 μM stock solution was prepared with TNS in distilled water. The vesicles were diluted to contain 24 μM lipid in 2 mL of a buffer solution containing 10 mM HEPES, 10 mM MES, 10 mM acetic acid, 130 mM NaCl, and having a pH of 2.5 to 11. The equal TNS solution was added to produce a final concentration of 1 uM, and after vortex mixing, fluorescence intensity was measured in a SLM Aminco Series 2 luminescence spectrophotometer at room temperature using excitation and emission wavelengths of 321 nm and 445 nm. Fluorescence data were analyzed using a sigmoidal best fit and pKa was measured as the pH producing half-maximal fluorescence intensity.

Compound | Liver Luc @ 0.3 mg/kg dose [1] [ng luciferase/g liver] | Liver Luc @ 1.0 mg/kg dose [1] [ng luciferase/g liver] | pKa [2]
2-heptylnonyl 8-((2-hydroxyethyl) (6-oxo-6-(undecyloxy)hexyl)amino)octanoate [Compound B] | 134 ± 40 | 522 ± 210 | 
CCCCCCCCCCCOC(=O)CCCCCN(CCO)CCCCCCCC(=O)OCC(CCCCCCCC)CCCCCCCC [Compound A, 2-octyldecyl 8-((2-hydroxyethyl) (6-oxo-6-(undecyloxy)hexyl)amino)octanoate] | 156 ± 50 | 550 ± 200 | 6.01
